In US8076310B2, “Phosphonate nucleosides useful as active ingredients in pharmaceutical compositions for the treatment of viral infections, and intermediates for their production” (K.U.Leuven Research & Development, priority 2004, dated 2011) one finds Kcat and Km data, which are given here for one compound.

This assay has as its target T1, HIV reverse transcriptase (Human immunodeficiency virus type 1 group M subtype B, UniProt P04585).
T1 construct: 0.025 U/μL HIV reverse transcriptase
Description: Steady-state kinetics of nucleotide incorporation in a DNA hybrid by HIV reverse transcriptase. The class given is biochemical. Conditions: 0.025 U/μL HIV reverse transcriptase, 250 nM primer/template, average of three determinations. The protocol:
Determination of Km and Kcat values for the incorporation of dATP and PMDTApp in a DNA hybrid was carried out under steady-state conditions as described by Creighton et al. in Methods in Enzymology (1995) 262:232-256. […] Results given below are the average of three independent determinations. The reaction mixture contained 250 nM primer/template complex 0.025 U/μL HIV reverse transcriptase, and the triphosphate nucleotides to be incorporated (dATP and PMDTApp, respectively). The template sequence and the primer sequence used in this experiment are shown below. The reaction was quenched after 1, 2 and 3 minutes by adding a double volume of stop solution (90% formamide, 0.05% bromophenol blue, 0.05% xylene cyanol and 50 mM EDTA). Samples were analyzed by gel electrophoresis on a 16% polyacrylamide ureum gel in TBE buffer (89 mM Tris-borate, 2 mM EDTA buffer, pH 8.3) after heating the samples for 5 minutes at 70° C. Products were visualised by phosphorimaging. The amount of radioactivity in the bands corresponding to the products of the enzymatic reactions was determined using the Optiquant Image Analysis Software (Packard). Rate profiles were determined using GraphPad Prism® software.

Each structure is given as a SMILES string.

Regarding `Nc1ncnc2c1ncn2[C@H]1C[C@H](O)[C@@H](COP(=O)(O)OP(=O)(O)OP(=O)(O)O)O1` [dATP, deoxy-adenosine triphosphate], the Kcat is recorded as 0.66 min − 1 and the Km came out at 0.1 µM.
